Assay results: patent publication US20220195332A1, “DIETARY BUTYRATE AND ITS USES” (SOCIETE DES PRODUITS NESTLE S.A., priority 2019, published 2022)

How the values were obtained:
[1] = system: rabbit gastric lipase (RGL) followed by porcine pancreatic lipase (PPL); test: Sequential in vitro digestion in simulated gastric fluid (SGF) followed by simulated intestinal fluid (SIF), pH-stat
[2] = system: porcine pancreatic lipase (PPL); conditions: pig, 3 h, pH 11.5
Excerpt: Because many fatty acids are only partially ionised at pH 6.8, direct titration gives only partial picture of the extent of lipid digestion, instead back titration to pH 11.5 or GC-FAME analysis is required to estimate the full extent of digestion.

Initial lipolysis rate in SIF compartment ([1]; SGF-SIF sequential digestion (90 minutes SGF pH 5.5, then SIF pH 6.8)): 44.1 ± 8.8 µmol/min
Lipolysis by gastric lipase ([1]; indicated by decreased total fatty acid release during SIF after RGL pre-exposure): ~60%
Hydrolysis in the stomach (gastric lipolysis), in words ([1]; simulated gastric compartment): extensive hydrolysis in the stomach
Extent of digestion [2]: 101.5±0.9%
Compound: CCCC(=O)OCC(COC(=O)CCC)OC(=O)CCC [tributyrin]
